Laboratory results taken from US7544700B2, “Pharmaceutically active sulfonamide derivatives bearing both lipophilic and ionisable moieties as inhibitors of protein JunKinases” (Laboratoires Serono SA, priority 2000, dated 2009).
Counter-ions that a name gives are not always drawn.

How the values were obtained:
JNK1 = JNK1 (Homo sapiens, UniProt P45983); assay: JNK1 inhibition; type: biochemical; conditions: read-out: inhibition (IC50) with regard to JNK1
GST-JNK3 = GST-JNK3 (Homo sapiens, UniProt P53779); assay: JNK3 in vitro assay (33P incorporation into c-jun, SPA); type: biochemical
Experimental: (§1) The phosphorylation of c-jun by JNK2 or JNK3 may be followed by monitoring the incorporation of ^33P into c-jun following the protocol below. The inhibitory activity of the compounds according to formula I, in respect of c-jun phosphorylation through JNK, is determined by calculating the phosphorylation activity of a JNK in the presence or absence of the test compounds according to formula I.
(§2) JNK3 and/or -2 assays are performed in 96 well NM plates: incubation of 0.5 μg of recombinant, pre-activated GST-JNK3 or GST-JNK2 with 1 μg of recombinant, biotinylated GST-c-Jun and 2 μM ^33γ-ATP (2 nCi/μl), in the presence or absence of compounds according to formula I and in a reaction volume of 50 μl containing 50 mM Tris-HCl, pH 8.0; 10 mM MgCl2; 1 mM Dithiothreitol, and 100 μM NaVO4. The incubation is performed for 120 min. at R.T and stopped upon addition of 200 μl of a solution containing 250 μg of Streptavidine-coated SPA beads (Amersham, Inc.)*, 5 mM EDTA, 0.1% Triton X-100 and 50 μM ATP, in phosphate saline buffer. After incubation for 60 minutes at RT, beads are sedimented by centrifugation at 1500×g for 5 minutes, resuspended in 200 μl of PBS containing 5 mM EDTA, 0.1% Triton X-100 and 50 μM ATP and the radioactivity measured in a scintillation β counter, following sedimentation of the beads as described above. By replacing biotinylated GST-c Jun with biotinylated GST-1ATF2 or biotinylated myelin basic protein, this assay may also be used to measure inhibition of pre-activated p38 and ERK MAP Kinases, respectively.

GST-JNK2 = GST-JNK2 (Homo sapiens, UniProt P45984); assay: JNK2 in vitro assay (33P incorporation into c-jun, SPA); type: biochemical
Experimental: as §1, §2

Solubility in water = type: physicochemical; conditions: pH 7.4, aqueous buffer, pH of 7.4 at room temperature
Experimental: The compounds have been assessed in respect of their solubility in water, at a pH of 7.4 at room temperature. In general the solubility of compounds of formula (I) is in a range of at least 50 μg/mL solvent, more preferably of at least 100 μg/mL solvent. For instance compounds (63), (163), (198) display a solubility in water of at least 200 μg/mL solvent.

[1] = tested on: Sympathetic neurons from superior cervical ganglia (SCG); assay: Sympathetic neuron culture and survival assay; type: cell-based, rat; conditions: at 3 μM; anti NGF antibody induced cell death, MTT after 24 hours
Experimental: The Ability of the Compounds According to Formula I to Increase the Survival Rate of Neuronal Cells Having Been Induced to Cell Death was Assessed Using the Following Protocol
Cell death is induced at day 4 after plating by exposing the culture to medium containing 10 μg/mL of anti NGF anti-body (Boehringer Mannheim Corp., Indianapolis, Ind.) and no NGF or arabinosine, in the presence or absence of sulfonamide inhibitors. 24 hours after cell death induction, determination of cell viability is performed by incubation of the culture for 1 hour, at 37° C. in 0.5 mg/mL of 3-(4,5-dimethylthiazol-2-yl)-2,5 diphenyl tetrazolium bromide (MTT). After incubation in MTT cells are resuspended in DMSO, transferred to a 96 MTT plate and cell viability is evaluated by measuring optical density at 590 nm.

Male C57BL/6 mice = assay: LPS induced endotoxin shock in mice; type: in vivo; conditions: intravenously 15 min before LPS challenge
Experimental: Endotoxins are the lipopolysaccharides (LPS) constituents of the outer membrane of Gram negative bacteria. […] As LPS is known to stimulate the activation of various MAP kinase pathways, including JNK (35), the ability of JNK inhibitors can be tested after the JNK signaling pathway has been switched on by a LPS challenge.
LPS (S. abortus-Galanos Lab.-) is injected (200 μg/kg, i.v.) to Male C57BL/6 mice to induce endotoxin shock. Compounds according to formula I (0.1, 1, 10 mg/kg) or NaCl ([…]) are injected intravenously (10 mL/kg) 15 min before the LPS challenge. Heparinized blood was obtained from the orbital sinus at different time points after the LPS challenge, and the blood was centrifuged at 9'000 rpm for 10 min at 4° C. to collect supernatent. Measurement of cytokines production such as TNFα and IFNγ by mouse is performed with an ELISA kit such as Duoset® DY410 for TNFα and DY 485 for IFN γ. Other ELISA assays such as described in (36) can be used.

[2] = tested on: gerbil bilateral carotid occlusion; assay: Global ischemia in gerbils; type: in vivo; conditions: 80 mg/kg
Experimental: The Ability of the JNK Inhibitors Described in Formula I to Protect Cell Death During a Stroke Event was Assessed Using the Following Protocol:
The gerbil bilateral carotid occlusion is a well-described animal model of acute ischemic stroke and involves relatively easy surgical techniques.
The neuronal degeneration in the hippocampus develops over several days and is often referred as “delayed neuronal death”. In addition, the neurodegeneration observed histologically is obvious and easily quantified (37). Furthermore, the histopathology seen in the gerbil is similar to that observed in the hippocampal CA1 region of the human brain following a cardiac arrest. Behavior observations, such as memory tests, could even be performed in the case of gerbils. This kind of tests for appreciation of the degree of recovery is not easily manageable in other models such as in rat whose learning abilities are much poorer (38).
• Anesthesia with isoflurane (0.5-4%). • The common carotid arteries (left and right) are freed from tissue. • Occlusion of the arteries using Bulldog microclamps during 5 min. • Removal of clamps (reperfusion) • Stabulation of the animals under heating lamp until awake. • Stabulation of the animals in the animalry in individual cages. Sacrifice of the Animals • 7 days after ischemia (Decapitation or overdose of pentobarbital). • Sampling of the brain. […]

[3] = tested on: IL-2 release by (PMA+Ionomycin)-stimulated Jurkat cells; assay: IL-2 release assay (IL-2 ELISA); type: cell-based; conditions: Homo sapiens; PMA + Ionomycine stimulated Jurkat cells
Experimental: The Ability of the Compounds According to Formula I to Modulate the Inflammatory Response by Inhibiting the Release of IL-2 was Assessed Using the Following Protocol
JNK pathway activation triggers the production of inflammatory cytokines such as IL-2. JNK can be activated by external stimuli such as PMA and Ionomycine and IL-2 production can be measured via an IL-2 ELISA test. Comparative measurements with and without the compounds of the invention according to the following protocol measure the ability of the compounds to prevent to stress-mediated IL-2 release.
Jurkat cells, a human T cell leukemia cell line (American Type Culture Collection # TIB 152) were cultured in RPMI 1640 medium (Gibco, BRL) supplemented with 10% of […] fetal calf serum (FCS), Glutamine and Penstrep. The cell suspension in the medium is diluted to give 2.10^6 cells/mL. The cells were plated (2.10^5 cells/well) on a 96-well plate containing different concentrations of a compound according to formula I (final concentration of compounds, 10, 3, 1, 0.3, 0.1 μM). This mixture is incubated 30 minutes at 37° C. in a humidified CO2 atmosphere. Cells were then treated with 10 μl PMA (Phorbolmyristate-13 Acetate-12)+Ionomycine (0.1 μM and 1 μM final concentration) in all wells except negative control. In wells without compounds, 10 μl of RPMI 2% DMSO (=0.1% final) is added. Cells are incubated 24 hours at 37° C. and then the supernatant harvested (freeze at −20° C. if not used the same day) prior to performing IL-2 ELISA test on the supernatant.
IL-2 release into the medium by (PMA+Iononomycin)-stimulated Jurkat cells, in presence or absence of test compounds may be assayed by ELISA. Following the procedure described below.
Monoclonal anti-human IL-2 antibody (MAB602) (capture), biotinylated anti-human IL-2 antibody (BAF202) (detection) and recombinant human IL-2 (202-IL-010) (standard) from From R&D Systems are used. […]
• 1. […] Optical density is measured using a microtiter plate reader set to 450 nm with correction at 570 nm.

Sequence of JNK1 (P45983 whole entry, species assumed): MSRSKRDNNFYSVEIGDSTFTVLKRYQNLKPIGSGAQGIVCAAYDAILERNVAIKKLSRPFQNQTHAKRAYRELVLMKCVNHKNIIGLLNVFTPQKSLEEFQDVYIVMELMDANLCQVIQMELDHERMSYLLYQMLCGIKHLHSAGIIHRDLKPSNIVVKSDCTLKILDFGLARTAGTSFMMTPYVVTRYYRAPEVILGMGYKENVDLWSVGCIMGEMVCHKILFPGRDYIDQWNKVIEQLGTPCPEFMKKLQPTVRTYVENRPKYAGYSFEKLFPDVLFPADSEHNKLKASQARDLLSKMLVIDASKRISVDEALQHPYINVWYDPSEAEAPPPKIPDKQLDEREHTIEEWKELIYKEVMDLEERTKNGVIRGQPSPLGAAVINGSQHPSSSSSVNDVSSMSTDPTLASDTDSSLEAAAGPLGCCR
Sequence of GST-JNK3 (P53779 whole entry): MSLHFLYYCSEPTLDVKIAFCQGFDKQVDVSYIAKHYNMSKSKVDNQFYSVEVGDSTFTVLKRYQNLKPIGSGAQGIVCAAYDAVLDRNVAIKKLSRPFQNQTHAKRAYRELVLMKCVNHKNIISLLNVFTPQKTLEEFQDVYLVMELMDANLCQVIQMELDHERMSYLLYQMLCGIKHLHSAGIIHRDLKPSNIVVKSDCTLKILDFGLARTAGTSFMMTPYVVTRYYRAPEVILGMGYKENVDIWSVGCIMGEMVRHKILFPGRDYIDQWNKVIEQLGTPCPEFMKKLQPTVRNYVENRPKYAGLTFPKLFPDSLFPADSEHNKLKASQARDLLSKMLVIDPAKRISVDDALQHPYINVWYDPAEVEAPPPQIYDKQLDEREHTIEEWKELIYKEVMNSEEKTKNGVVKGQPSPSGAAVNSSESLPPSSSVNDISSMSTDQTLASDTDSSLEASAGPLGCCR
Sequence of GST-JNK2 (P45984 whole entry): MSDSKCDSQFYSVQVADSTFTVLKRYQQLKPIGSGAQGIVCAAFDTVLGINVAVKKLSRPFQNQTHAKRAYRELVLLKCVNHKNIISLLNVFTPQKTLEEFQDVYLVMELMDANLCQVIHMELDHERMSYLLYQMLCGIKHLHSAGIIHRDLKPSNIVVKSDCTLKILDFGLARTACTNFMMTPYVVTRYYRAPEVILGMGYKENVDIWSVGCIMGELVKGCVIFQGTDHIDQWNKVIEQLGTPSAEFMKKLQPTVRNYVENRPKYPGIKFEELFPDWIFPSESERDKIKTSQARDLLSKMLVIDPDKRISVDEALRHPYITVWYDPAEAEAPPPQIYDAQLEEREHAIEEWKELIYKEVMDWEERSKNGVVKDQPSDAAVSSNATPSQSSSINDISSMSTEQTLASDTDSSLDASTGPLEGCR

## O=C(NCc1ccc(S(=O)(=O)N2CCC(NCc3ccc(C(F)(F)F)cc3)CC2)s1)c1ccc[nH]c1=O (as salt: HCl) [Example 198, 2-Oxo-N-({5-[(4-{[4-(trifluoromethyl)benzyl]amino}-1-piperidinyl)sulfonyl]-2-thienyl}methyl)-1,2-dihydro-3-pyridinecarboxamide]
other
  melting point: 288 to 289 °C

## CCCCCCNC1CCN(S(=O)(=O)c2ccc(CNC(=O)c3ccc(Cl)cc3)s2)CC1 [Example 63, 4-Chloro-N-[(5-{[4-(hexylamino)piperidin-1-yl]sulfonyl}thien-2-yl)methyl]benzamide]
JNK1
  IC50: 100 to 700 nM
GST-JNK3
  IC50: < 600 nM
GST-JNK2
  IC50: < 600 nM
Solubility in water
  solubility: ≥ 200 µg/mL
[1]
  rescue rate of SCG cells: 35%
Male C57BL/6 mice; 1 mg/kg
  inhibition of IFNγ production: 65%
Male C57BL/6 mice; 10 mg/kg
  inhibition of TNFα production: 40%

## CCCCNC1CCN(S(=O)(=O)c2ccc(CNC(=O)c3ccc(Cl)cc3)s2)CC1 [Example 68, 4-chloro-N-[(5-{[4-(butylamino)piperidin-1-yl]sulfonyl}thien-2-yl)methyl]benzamide]
[2]
  inhibition of global ischemia (% inhibition of total lesion): 64%
[3]
  IC50: < 800 nM

## O=C(NCc1ccc(S(=O)(=O)N2CCC(NCc3ccc(C(F)(F)F)cc3)CC2)s1)c1ccc[nH]c1=O [Example 198, 2-Oxo-N-({5-[(4-{[4-(trifluoromethyl)benzyl]amino}-1-piperidinyl)sulfonyl]-2-thienyl}methyl)-1,2-dihydro-3-pyridinecarboxamide]
JNK1
  IC50: 100 to 700 nM
Solubility in water
  solubility: ≥ 200 µg/mL
